From the NIST ThermoML archive (doi:10.1016/j.jct.2013.09.035)
Numbers after ± are expanded uncertainties.

Settings: Liquid, Vibrating tube method

FCC(F)(F)F [1,1,1,2-tetrafluoroethane]
Settings | mass density [kg/m3]
283.25 K, 60000 kPa | 1416.44 ± 1.6
283.26 K, 1000 kPa | 1265.88 ± 0.5
283.26 K, 5000 kPa | 1282.35 ± 0.65
283.26 K, 10000 kPa | 1300.86 ± 0.57
283.26 K, 20000 kPa | 1331.64 ± 0.6
283.26 K, 40000 kPa | 1379.61 ± 1.1
283.26 K, 80000 kPa | 1446.35 ± 1.6
302.84 K, 20000 kPa | 1276.99 ± 0.73
302.84 K, 40000 kPa | 1333.11 ± 1.1
302.84 K, 80000 kPa | 1408.64 ± 1.5
302.85 K, 1000 kPa | 1190.34 ± 0.51
302.85 K, 5000 kPa | 1214.03 ± 0.51
302.85 K, 10000 kPa | 1238.45 ± 0.55
302.85 K, 60000 kPa | 1374.79 ± 1.1
322.62 K, 5000 kPa | 1140.59 ± 0.63
322.63 K, 10000 kPa | 1174.6 ± 0.56
322.63 K, 20000 kPa | 1224.02 ± 0.64
322.64 K, 40000 kPa | 1290.68 ± 0.88
322.64 K, 60000 kPa | 1338.04 ± 0.98
322.64 K, 80000 kPa | 1375.39 ± 1.4
342.56 K, 5000 kPa | 1047.23 ± 0.84
342.56 K, 10000 kPa | 1098.48 ± 0.71
342.56 K, 20000 kPa | 1163.35 ± 0.49
342.56 K, 40000 kPa | 1242.84 ± 0.65
342.57 K, 60000 kPa | 1296.48 ± 0.86
342.57 K, 80000 kPa | 1337.6 ± 1.3
362.57 K, 5000 kPa | 924.58 ± 1.2
362.58 K, 10000 kPa | 1014.86 ± 0.8
362.58 K, 20000 kPa | 1102.88 ± 0.54
362.58 K, 40000 kPa | 1197.86 ± 0.69
362.58 K, 60000 kPa | 1258.31 ± 0.81
362.58 K, 80000 kPa | 1303.78 ± 1.2
